For data set [1], the target named is T1, thrombin (Homo sapiens, UniProt P00734). As to the kind of experiment: competitive-binding capillary electrophoresis screening with fluorescently labeled competitive ligand (FCL). As to conditions: for FCL/TG complex peak: FIG. 1. Here is the method: Also prepared is 100 nM of a fluorescently labeled, tight-binding competitive ligand, single-stranded (ss) DNA oligonucleotide 5′-fluorescein-GGTTGGTGTGGTTGG-3′ (Kd=3×10^−9 M; hereinafter “FCL”). The mixture of target and candidate ligand (TG/LG) is first injected into the CE instrument for about ten (10) seconds to give a first plug, followed by a 10-second injection of FCL as the second plug.
Voltage of about 20 kV is applied to initiate electrophoresis, and the unbound competitive ligand (FCL) and bound FCL/TG complex peaks are monitored during CE by means of laser-induced fluorescence and a fluorescence detector positioned at a detection point along the capillary.
Here the thrombin target (TG) is incubated, prior to CE, for five minutes with samples containing hirugen and hirulog-1 at different concentrations. Each of these target/sample mixtures is subjected to a CE screening run, as follows. A plug of target/sample mixture is pressure-injected into the CE instrument for 10 seconds to give a first-injected plug. A second injection plug of 100 nM FCL is then injected for 10 seconds, and then voltage of about 20 kV is applied to start electrophoresis. The CE migration of the FCL and FCL/TG complex are monitored by way of laser-induced fluorescence. Again, the FCL has a higher electrophoretic mobility than the TG, so that the unbound FCL peak appears before that of the FCL/TG complex (see FIG. 2).

For data set [2], the target named is T1, thrombin. As to conditions: binding to thrombin; stated for known ligands; cited from earlier work.

For the substance “D-Phe-Pro-Arg-Pro-(Gly)4-Asn-Gly-Asp-Phe-Glu-Glu-Ile-Pro-Glu-Glu-Tyr-Leu [hirulog-1]”, the FCL/TG complex peak result on thrombin [1] (50 nM hirulog-1 in sample, equivalent to 50 nM thrombin, 100 nM FCL) is recorded as “complete disappearance”; at thrombin [1] (increasing concentrations of hirulog-1, 50 nM thrombin pre-incubated 5 min, 100 nM FCL, 20 kV) it was “reduced”. Further, the FCL/TG peak result on thrombin [1] (hirulog-1 in samples also containing hirugen, 100 nM FCL, FIG. 2) is given as “decrease”. Besides, the “molar excess of weak-binding hirugen at which the hirulog-1 signal is detectable” value at thrombin [1] (samples containing hirugen and hirulog-1, FIG. 2) is listed as “up to 1,000 fold”. For the same substance, the Kd at thrombin [2] is around 2 nM.
For the substance 5′-fluorescein-GGTTGGTGTGGTTGG-3′ [FCL], the Kd with thrombin [2] is 3 nM.
In the case of “Gly-54-Leu-65 carboxyterminal dodecapeptide of hirudin with sulfated tyrosine [hirugen]”, the “change in competitive ligand's (FCL's) CE profile” value on thrombin [1] (pre-incubation of thrombin with 10,000 nM hirugen, 100 nM FCL, FIG. 2) is recorded as “no difference”. Further, the Kd at thrombin [2] was 150 nM.

A word on the Kd: it is the free concentration of one partner at which half of the binding sites on the other are occupied at equilibrium, for simple one-to-one binding.

These data come from patent US6837977B1, “Capillary electrophoresis method for screening for affinity ligands using a detectable competitive ligand” (Cetek Corporation, priority 1999, dated 2005).
